Experimental data from patent US20220324865A1 (Bayer Aktiengesellschaft, priority 2018, published 2022).

The compounds below were run against T1, human EP3 receptor (Homo sapiens, UniProt P43115) (assay: Cellular in vitro assay for determining EP3 receptor activity (human EP3 cell line, sulprostone-stimulated calcium luminescence)). Details: CHO cells expressing human EP3 and mitochondrial Clytin; antagonist mode, sulprostone at EC50; read-out: EP3 CHO mtCLY ANTAG IC50.
T1 construct: expressed in transfected cells; host or cells: CHO K1 (Chinese Hamster Ovary), stably co-transfected with Galpha16 and mitochondrial clytin
T1 sequence (P43115 1-390): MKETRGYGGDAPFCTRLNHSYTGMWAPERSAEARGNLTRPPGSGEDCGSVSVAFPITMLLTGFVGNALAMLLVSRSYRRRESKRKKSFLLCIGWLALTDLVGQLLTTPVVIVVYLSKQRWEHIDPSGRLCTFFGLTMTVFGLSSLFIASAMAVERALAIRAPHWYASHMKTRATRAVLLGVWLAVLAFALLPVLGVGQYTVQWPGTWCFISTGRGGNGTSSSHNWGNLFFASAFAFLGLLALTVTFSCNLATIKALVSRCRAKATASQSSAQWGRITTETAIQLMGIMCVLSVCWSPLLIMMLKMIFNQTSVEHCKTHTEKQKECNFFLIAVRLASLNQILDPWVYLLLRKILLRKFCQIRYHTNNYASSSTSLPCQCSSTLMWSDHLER
Type: cell-based
In short: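 CHO K1 cells stably expressing human EP3 with Gα16 and mitochondrial Clytin, loaded overnight with coelenterazine. Compounds added 10 min before sulprostone at its EC50; antagonism read immediately as reduced calcium-driven luminescence, quadruplicate points.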

IC50 | SMILES
0.653 nM | CC(C)(O)[C@@H](NC(=O)c1cc2c(=O)[nH]c(-c3ccc4ccccc4c3)cn2n1)c1ccccc1 [Example 1-3, N-[(1S)-2-Hydroxy-2-methyl-1-phenylpropyl]-6-(naphthalen-2-yl)-4-oxo-4,5-dihydropyrazolo-[1,5-a]pyrazine-2-carboxamide]
6.1 nM | Cc1ccc(-c2[nH]c(=O)c3c(C4CC4)c(C(=O)N[C@@H](c4ccc(F)cc4)C(F)(F)CO)nn3c2F)cc1Cl [6-662]
0.78 nM | Cc1ccc(-c2cn3nc(C(=O)N[C@H](C)C4CC4)c(C(F)(F)F)c3c(=O)[nH]2)cc1C [6-120]
1.6 nM | C[C@H](NC(=O)c1nn2cc(-c3cc(Cl)c(Cl)cc3F)[nH]c(=O)c2c1C1CC1)C1CC1 [6-581]
0.99 nM | Cc1cc(-c2cn3nc(C(=O)NC4(c5ccc(F)cc5)CN(CC(F)(F)F)C4)c(C4CC4)c3c(=O)[nH]2)ccc1Cl [6-344]
1.5 nM | O=C(N[C@@H](c1ccc(F)cc1)C(F)(F)CO)c1nn2cc(-c3ccc(Cl)cc3)[nH]c(=O)c2c1C1CC1 [6-675]
3.6 nM | COc1ccc(C2(NC(=O)c3nn4cc(-c5ccc6c(c5)OCCO6)[nH]c(=O)c4c3C3CC3)CN(C)C2)cc1 [6-464]
1.8 nM | Cc1cc(-c2cn3nc(C(=O)N[C@H](C)C4CC4)c(C4CC4)c3c(=O)[nH]2)ccc1Cl [6-335]
8.5 nM | Cc1ccc(-c2cn3nc(C(=O)NC4CCN(CC(F)(F)F)C4)c(C4CC4)c3c(=O)[nH]2)cc1F (single isomer, unassigned) [6-390]
8.43 nM | Cc1cc(-c2cn3nc(C(=O)NC4(c5ccc(F)cc5)CN(C)C4)c(C4CC4)c3c(=O)[nH]2)c(F)cc1Cl [6-593]
6.3 nM | Cc1ccc(-c2cn3nc(C(=O)NC(CO)C(F)(F)F)c(C4CC4)c3c(=O)[nH]2)cc1C(F)(F)F (single isomer, unassigned) [6-250]
2.7 nM | Cc1ccc(-c2cn3nc(C(=O)N[C@@H](c4ccc(F)cc4)C(C)(C)O)c(C4CCC4)c3c(=O)[nH]2)cc1C [6-577]
3.2 nM | Cc1ccc(-c2[nH]c(=O)c3c(C(F)(F)F)c(C(=O)N[C@H](C)c4ccc(F)cc4)nn3c2C)cc1C [Example 1-123, 6-(3,4-Dimethylphenyl)-N-[(1R)-1-(4-fluorophenyl)ethyl]-7-methyl-4-oxo-3-(trifluoromethyl)-4,5-dihydropyrazolo[1,5-a]pyrazine-2-carboxamide]
5.1 nM | CCN1CC(NC(=O)c2nn3cc(-c4ccc5ccccc5c4)[nH]c(=O)c3c2C(F)(F)F)(c2ccc(F)cc2)C1 [Example 1-126, N-[1-Ethyl-3-(4-fluorophenyl)azetidin-3-yl]-6-(naphthalen-2-yl)-4-oxo-3-(trifluoromethyl)-4,5-dihydropyrazolo[1,5-a]pyrazine-2-carboxamide]
5.45 nM | Cc1cc(-c2cn3nc(C(=O)NC(CO)c4ccc(F)cc4)c(C4CC4)c3c(=O)[nH]2)ccc1C(F)(F)F (racemic) [6-129]
1.04 nM | Cc1ccc(-c2cn3nc(C(=O)N[C@@H](C)C4CC4)c(C(F)(F)F)c3c(=O)[nH]2)cc1Cl [6-164]
2.1 nM | Cn1cnc2cc(-c3cn4nc(C(=O)N[C@@H](c5ccc(F)cc5)C(C)(C)O)c(C5CC5)c4c(=O)[nH]3)ccc21 [6-599]
3.7 nM | O=C(NCc1cc(F)ccc1F)c1cc2c(=O)[nH]c(-c3ccc4ccccc4c3)cn2n1 [Example 2-53, N-(2,5-Difluorobenzyl)-6-(2-naphthyl)-4-oxo-4,5-dihydropyrazolo[1,5-a]pyrazine-2-carboxamide]
1 nM | Cc1ccc(-c2cn3nc(C(=O)N[C@@H](C)C4CC4)c(C4CC4)c3c(=O)[nH]2)cc1C [6-439]

IC50 | SMILES
2.9 nM | COc1ccc(C2(NC(=O)c3nn4cc(-c5ccc(Cl)c(C)c5)[nH]c(=O)c4c3C3CC3)CN(C)C2)cc1 [6-303]
2.1 nM | COc1cc(-c2cn3nc(C(=O)N[C@@H](c4ccc(F)cc4)C(F)(F)CO)c(C4CC4)c3c(=O)[nH]2)ccc1Cl [6-486]
1.6 nM | Cc1cccc2ncc(-c3cn4nc(C(=O)Nc5cccc6ncccc56)c(C(C)C)c4c(=O)[nH]3)cc12 [Example 4-29, 6-(5-Methylquinolin-3-yl)-4-oxo-3-(propan-2-yl)-N-(quinolin-5-yl)-4,5-dihydropyrazolo[1,5-a]pyrazine-2-carboxamide]
1.95 nM | Cc1ccc(-c2cn3nc(C(=O)N[C@H](CN4CC[C@H](F)C4)c4ccccc4)cc3c(=O)[nH]2)cc1F [6-643]
2.8 nM | Cc1ccc(-c2cn3nc(C(=O)NC(CO)c4ccc(F)cc4)c(C(F)(F)F)c3c(=O)[nH]2)cc1Cl (single isomer, unassigned) [6-155]
0.95 nM | CC(C)[C@@H](C)NC(=O)c1nn2cc(-c3ccc4ccccc4c3)[nH]c(=O)c2c1C(F)(F)F [6-512]
4.35 nM | Cc1cc(-c2cn3nc(C(=O)NC4(c5ccc(F)cc5)CN(C)C4)c(C(F)(F)F)c3c(=O)[nH]2)ccc1Cl [6-207]
3.7 nM | O=C(N[C@@H]1CCCc2ccccc21)c1cc2c(=O)[nH]c(-c3ccc4ccccc4c3)cn2n1 [Example 2-43, 6-(2-Naphthyl)-4-oxo-N-[(7R)-1,2,3,4-tetrahydronaphthalin-1-yl]-4,5-dihydropyrazolo[1,5-a]pyrazine-2-carboxamide]
0.68 nM | O=C(NC(c1ccc(F)cc1)C1(O)CC1)c1nn2cc(-c3ccc(Cl)c(Cl)c3)[nH]c(=O)c2c1C1CC1 (single isomer, unassigned) [6-424]
2.1 nM | Cc1ccc(-c2cn3nc(C(=O)NCC(C)(N)C(F)(F)F)c(C(F)(F)F)c3c(=O)[nH]2)cc1Cl (single isomer, unassigned) [6-170]
6.65 nM | COCc1c(C(=O)NC2(c3ccc(F)cc3)CN(C)C2)nn2cc(-c3ccc4c(c3)OCCO4)[nH]c(=O)c12 [6-628]
3.58 nM | Cc1ccc(-c2cn3nc(C(=O)NC4(c5ccc(F)cc5)CN(C)C4)c(C(F)(F)F)c3c(=O)[nH]2)cc1C [Example 1-93, 6-(3,4-Dimethylphenyl)-N-[3-(4-fluorophenyl)-1-methylazetidin-3-yl]-4-oxo-3-(trifluoromethyl)-4,5-dihydropyrazolo[1,5-a]pyrazine-2-carboxamide]
2.2 nM | Cc1ccc(-c2cn3nc(C(=O)NCCC(O)C(F)(F)F)c(C4CC4)c3c(=O)[nH]2)cc1F (racemic) [6-366]
1.3 nM | Cc1ccc(-c2cn3nc(C(=O)N[C@@H](c4ccccc4)C(C)(C)O)c(C4CC4)c3c(=O)[nH]2)cc1F [6-385]
2.03 nM | Cc1ccc(-c2cn3nc(C(=O)NC4(c5ccc(F)cc5)CC4)cc3c(=O)[nH]2)cc1C [6-24]
9.4 nM | Cc1c(C(=O)NC(C)(C)c2cc(Cl)cc(Cl)c2)nn2c(C)c(-c3ccc4ccccc4c3)[nH]c(=O)c12 [Example 3-30, N-[2-(3,5-Dichlorophenyl)propan-2-yl]-3,7-dimethyl-6-(naphthalen-2-yl)-4-oxo-4,5-dihydropyrazolo[1,5-a]pyrazine-2-carboxamide]
6.2 nM | COc1ccc2c(c1)C(NC(=O)c1cc3c(=O)[nH]c(-c4ccc5ccccc5c4)cn3n1)CC(C)(C)O2 (stereo not shown) [Example 2-16, N-[6-Methoxy-2,2-dimethyl-3,4-dihydro-2H-chromen-4-yl]-6-(2-naphthyl)-4-oxo-4,5-dihydropyrazolo[1,5-a]pyrazine-2-carboxamide]
1.13 nM | Cc1ccc(-c2cn3nc(C(=O)NC4CCN(CC(F)F)C4)c(C4CC4)c3c(=O)[nH]2)cc1C (stereo not shown) [6-453]
